{"source": "patent US10392391B2", "about": "(Vertex Pharmaceuticals Incorporated, priority 2012, dated 2019)", "target": "ATR kinase (full-length ATR) (Homo sapiens (Human), UniProt Q13535)", "sequence (Q13535 whole entry)": "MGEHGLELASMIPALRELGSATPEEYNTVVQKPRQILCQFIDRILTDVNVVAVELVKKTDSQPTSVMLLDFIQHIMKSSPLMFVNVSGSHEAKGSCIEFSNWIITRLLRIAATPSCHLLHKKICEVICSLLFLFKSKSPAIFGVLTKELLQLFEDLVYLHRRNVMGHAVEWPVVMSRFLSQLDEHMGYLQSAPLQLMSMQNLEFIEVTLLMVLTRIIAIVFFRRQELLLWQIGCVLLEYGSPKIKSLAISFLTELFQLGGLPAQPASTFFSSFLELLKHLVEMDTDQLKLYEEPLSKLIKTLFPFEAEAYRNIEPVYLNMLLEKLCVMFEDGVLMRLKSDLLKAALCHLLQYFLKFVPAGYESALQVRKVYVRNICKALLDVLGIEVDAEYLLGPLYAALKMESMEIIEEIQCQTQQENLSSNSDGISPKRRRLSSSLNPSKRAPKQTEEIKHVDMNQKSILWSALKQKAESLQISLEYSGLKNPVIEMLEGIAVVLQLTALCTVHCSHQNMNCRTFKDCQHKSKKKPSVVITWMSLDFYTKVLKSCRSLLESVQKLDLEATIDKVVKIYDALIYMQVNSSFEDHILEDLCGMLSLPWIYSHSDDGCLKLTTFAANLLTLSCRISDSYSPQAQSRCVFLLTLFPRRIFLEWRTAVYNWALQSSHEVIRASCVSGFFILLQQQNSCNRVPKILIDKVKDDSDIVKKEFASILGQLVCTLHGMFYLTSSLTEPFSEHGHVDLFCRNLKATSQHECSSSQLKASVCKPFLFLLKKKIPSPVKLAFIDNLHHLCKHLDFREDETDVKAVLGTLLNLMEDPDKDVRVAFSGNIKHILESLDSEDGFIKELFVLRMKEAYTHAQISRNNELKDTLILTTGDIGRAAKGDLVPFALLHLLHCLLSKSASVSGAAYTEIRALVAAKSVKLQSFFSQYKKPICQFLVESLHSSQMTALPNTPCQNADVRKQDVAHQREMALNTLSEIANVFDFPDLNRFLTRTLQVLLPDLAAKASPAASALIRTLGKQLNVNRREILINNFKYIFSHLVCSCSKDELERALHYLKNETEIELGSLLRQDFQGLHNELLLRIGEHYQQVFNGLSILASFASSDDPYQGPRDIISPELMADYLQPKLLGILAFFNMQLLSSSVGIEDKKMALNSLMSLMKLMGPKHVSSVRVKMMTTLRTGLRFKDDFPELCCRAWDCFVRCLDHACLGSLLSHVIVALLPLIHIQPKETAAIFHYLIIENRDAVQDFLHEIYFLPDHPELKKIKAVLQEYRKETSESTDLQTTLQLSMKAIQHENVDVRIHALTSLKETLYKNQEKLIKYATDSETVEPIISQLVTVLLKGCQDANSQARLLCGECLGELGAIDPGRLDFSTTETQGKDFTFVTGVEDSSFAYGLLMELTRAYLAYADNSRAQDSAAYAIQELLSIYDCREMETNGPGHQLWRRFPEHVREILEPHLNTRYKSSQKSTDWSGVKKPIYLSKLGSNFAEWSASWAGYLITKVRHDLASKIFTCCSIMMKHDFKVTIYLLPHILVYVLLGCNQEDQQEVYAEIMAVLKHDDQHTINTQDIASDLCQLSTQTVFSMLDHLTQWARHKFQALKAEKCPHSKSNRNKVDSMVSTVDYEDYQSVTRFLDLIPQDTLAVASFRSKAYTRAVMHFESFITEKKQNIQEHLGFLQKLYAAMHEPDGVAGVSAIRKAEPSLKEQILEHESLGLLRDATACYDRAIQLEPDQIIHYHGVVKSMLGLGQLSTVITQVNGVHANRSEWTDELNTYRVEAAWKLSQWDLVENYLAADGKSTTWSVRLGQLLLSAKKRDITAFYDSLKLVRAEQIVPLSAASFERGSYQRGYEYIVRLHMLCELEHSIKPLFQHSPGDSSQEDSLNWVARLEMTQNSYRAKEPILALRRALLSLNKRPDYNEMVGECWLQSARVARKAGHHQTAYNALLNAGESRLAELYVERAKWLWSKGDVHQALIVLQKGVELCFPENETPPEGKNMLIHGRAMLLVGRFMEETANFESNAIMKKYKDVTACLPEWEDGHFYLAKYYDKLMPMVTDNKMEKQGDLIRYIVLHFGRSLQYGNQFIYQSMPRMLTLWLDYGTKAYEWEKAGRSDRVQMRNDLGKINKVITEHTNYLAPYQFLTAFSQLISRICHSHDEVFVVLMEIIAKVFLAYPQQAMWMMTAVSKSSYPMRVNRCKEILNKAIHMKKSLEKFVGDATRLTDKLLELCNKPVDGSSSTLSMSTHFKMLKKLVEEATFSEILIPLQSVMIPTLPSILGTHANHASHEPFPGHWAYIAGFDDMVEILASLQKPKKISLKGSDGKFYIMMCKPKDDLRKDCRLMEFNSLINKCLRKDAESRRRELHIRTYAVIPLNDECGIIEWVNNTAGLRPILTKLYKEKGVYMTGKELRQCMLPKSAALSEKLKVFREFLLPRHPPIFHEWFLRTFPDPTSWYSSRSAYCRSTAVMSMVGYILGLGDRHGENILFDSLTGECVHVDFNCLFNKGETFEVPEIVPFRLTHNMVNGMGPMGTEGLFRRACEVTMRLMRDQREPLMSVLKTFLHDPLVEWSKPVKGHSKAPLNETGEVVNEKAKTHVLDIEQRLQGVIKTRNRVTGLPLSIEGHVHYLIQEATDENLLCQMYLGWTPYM", "test": "ATR inhibition assay (radioactive-phosphate incorporation)", "assay_type": "biochemical", "settings": "Ki(app), 5 nM full-length ATR, 10 μM ATP, 25° C.", "outline": "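Radiometric 33P incorporation by 5 nM full-length ATR into 800 μM target peptide with 10 μM [γ-33P]ATP, in 50 mM Tris/HCl pH 7.5, 10 mM MgCl2, 1 mM DTT, 7% DMSO, 25° C. Compound pre-incubated 10 minutes; reaction stopped after 24 hours, captured on phosphocellulose. Ki(app) from non-linear regression of initial rates.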", "data": [{"smiles": "N#CCc1cnc2c(C(=O)Nc3cnccc3OCC(F)(F)F)c(N)nn2c1", "note": "[I-O-34, 2-amino-6-(cyanomethyl)-N-(4-(2,2,2-trifluoroethoxy)pyridin-3-yl)pyrazolo[1,5-a]pyrimidine-3-carboxamide]", "values": [{"measurement": "Ki", "result": "< 10", "unit": "nM"}]}, {"smiles": "CN1CCC(C(=O)N2CCN(c3c(F)cncc3NC(=O)c3c(N)nn4cc(F)cnc34)CC2)C1", "note": "(stereo not drawn) [I-N-156, 2-amino-6-fluoro-N-(5-fluoro-4-(4-(1-methylpyrrolidine-3-carbonyl)piperazin-1-yl)pyridin-3-yl)pyrazolo[1,5-a]pyrimidine-3-carboxamide]", "values": [{"measurement": "Ki", "result": "10 to 1000", "unit": "nM"}]}, {"smiles": "Nc1nn2cc(F)cnc2c1C(=O)Nc1cnccc1-c1ccc(C(=O)N2CCN(C3COC3)CC2)cc1", "note": "[I-C-49, 2-amino-6-fluoro-N-(4-(4-(4-(oxetan-3-yl)piperazine-1-carbonyl)phenyl)pyridin-3-yl)pyrazolo[1,5-a]pyrimidine-3-carboxamide]", "values": [{"measurement": "Ki", "result": "10 to 1000", "unit": "nM"}]}, {"smiles": "Nc1nn2cc(F)cnc2c1C(=O)Nc1cnccc1-c1cccnc1O", "note": "[I-C-32, 2-amino-6-fluoro-N-(2-hydroxy-[3,4′-bipyridin]-3′-yl)pyrazolo[1,5-a]pyrimidine-3-carboxamide]", "values": [{"measurement": "Ki", "result": "10 to 1000", "unit": "nM"}]}, {"smiles": "CN(C)C1CN(C2CCN(c3ccncc3NC(=O)c3c(N)nn4cc(Cl)cnc34)CC2)C1", "note": "[I-N-94, 2-amino-6-chloro-N-(4-(4-(3-(dimethylamino)azetidin-1-yl)piperidin-1-yl)pyridin-3-yl)pyrazolo[1,5-a]pyrimidine-3-carboxamide]", "values": [{"measurement": "Ki", "result": "10 to 1000", "unit": "nM"}]}, {"smiles": "Nc1nn2cc(F)cnc2c1C(=O)Nc1cncc(F)c1N1CCN([C@H]2CCOC2)CC1", "note": "[I-N-125, (S)-2-amino-6-fluoro-N-(5-fluoro-4-(4-(tetrahydrofuran-3-yl)piperazin-1-yl)pyridin-3-yl)pyrazolo[1,5-a]pyrimidine-3-carboxamide]", "values": [{"measurement": "Ki", "result": "10 to 1000", "unit": "nM"}]}, {"smiles": "Cc1nc(C(=O)N2CCN(C)CC2)ccc1-c1ccncc1NC(=O)c1c(N)nn2cc(F)cnc12", "note": "[I-C-39, 2-amino-6-fluoro-N-(2-methyl-6-(4-methylpiperazine-1-carbonyl)-[3,4′-bipyridin]-3′-yl)pyrazolo[1,5-a]pyrimidine-3-carboxamide]", "values": [{"measurement": "Ki", "result": "10 to 1000", "unit": "nM"}]}, {"smiles": "Nc1nn2cc(F)cnc2c1C(=O)Nc1cnccc1-c1ccc(C(=O)N2CCN(C3COC3)CC2)nc1", "note": "[I-C-52, 2-amino-6-fluoro-N-(6-(4-(oxetan-3-yl)piperazine-1-carbonyl)-[3,4′-bipyridin]-3′-yl)pyrazolo[1,5-a]pyrimidine-3-carboxamide]", "values": [{"measurement": "Ki", "result": "10 to 1000", "unit": "nM"}]}, {"smiles": "COc1cncc(NC(=O)c2c(N)nn3cc(F)cnc23)c1-c1cccnc1", "note": "[I-C-82, 2-amino-6-fluoro-N-(5′-methoxy-[3,4′-bipyridin]-3′-yl)pyrazolo[1,5-a]pyrimidine-3-carboxamide]", "values": [{"measurement": "Ki", "result": "10 to 1000", "unit": "nM"}]}, {"smiles": "CN(C)CCCN(C)C(=O)C1CCN(c2c(F)cncc2NC(=O)c2c(N)nn3cc(F)cnc23)CC1", "note": "[I-G-16, 2-amino-N-(4-(4-((3-(dimethylamino)propyl)(methyl)carbamoyl)piperidin-1-yl)-5-fluoropyridin-3-yl)-6-fluoropyrazolo[1,5-a]pyrimidine-3-carboxamide]", "values": [{"measurement": "Ki", "result": "10 to 1000", "unit": "nM"}]}, {"smiles": "Nc1nn2cc(F)cnc2c1C(=O)Nc1cncc(C2CC2)c1N1CCN(C2COC2)CC1", "note": "[I-N-32, 2-amino-N-(5-cyclopropyl-4-(4-(oxetan-3-yl)piperazin-1-yl)pyridin-3-yl)-6-fluoropyrazolo[1,5-a]pyrimidine-3-carboxamide]", "values": [{"measurement": "Ki", "result": "10 to 1000", "unit": "nM"}]}, {"smiles": "Nc1nn2cc(Cl)cnc2c1C(=O)Nc1cnccc1N1CCC(N2CC[C@@H](F)C2)CC1", "note": "[I-N-98, (R)-2-amino-6-chloro-N-(4-(4-(3-fluoropyrrolidin-1-yl)piperidin-1-yl)pyridin-3-yl)pyrazolo[1,5-a]pyrimidine-3-carboxamide]", "values": [{"measurement": "Ki", "result": "10 to 1000", "unit": "nM"}]}, {"smiles": "Nc1nn2cc(F)cnc2c1C(=O)Nc1cnccc1N1CCC(c2ncon2)CC1", "note": "[I-N-241, N-(4-(4-(1,2,4-oxadiazol-3-yl)piperidin-1-yl)pyridin-3-yl)-2-amino-6-fluoropyrazolo[1,5-a]pyrimidine-3-carboxamide]", "values": [{"measurement": "Ki", "result": "10 to 1000", "unit": "nM"}]}, {"smiles": "Nc1nn2cc(Cl)cnc2c1C(=O)Nc1cnccc1O[C@@H]1CCOC1", "note": "[I-O-54, (R)-2-amino-6-chloro-N-(4-((tetrahydrofuran-3-yl)oxy)pyridin-3-yl)pyrazolo[1,5-a]pyrimidine-3-carboxamide]", "values": [{"measurement": "Ki", "result": "10 to 1000", "unit": "nM"}]}, {"smiles": "Nc1nn2cc(F)cnc2c1C(=O)Nc1cnccc1OC1COC1", "note": "[I-O-92, 2-amino-6-fluoro-N-(4-(oxetan-3-yloxy)pyridin-3-yl)pyrazolo[1,5-a]pyrimidine-3-carboxamide]", "values": [{"measurement": "Ki", "result": "10 to 1000", "unit": "nM"}]}, {"smiles": "CN1CCN2CCN(c3c(F)cncc3NC(=O)c3c(N)nn4cc(F)cnc34)CC2C1=O", "note": "(stereo not drawn) [I-N-240, 2-amino-6-fluoro-N-(5-fluoro-4-(8-methyl-9-oxohexahydro-1H-pyrazino[1,2-a]pyrazin-2(6H)-yl)pyridin-3-yl)pyrazolo[1,5-a]pyrimidine-3-carboxamide]", "values": [{"measurement": "Ki", "result": "10 to 1000", "unit": "nM"}]}, {"smiles": "Nc1nn2cc(F)cnc2c1C(=O)Nc1cnccc1N1CCN2CCOC[C@@H]2C1", "note": "[I-N-115, (S)-2-amino-6-fluoro-N-(4-(hexahydropyrazino[2,1-c][1,4]oxazin-8(1H)-yl)pyridin-3-yl)pyrazolo[1,5-a]pyrimidine-3-carboxamide]", "values": [{"measurement": "Ki", "result": "10 to 1000", "unit": "nM"}]}, {"smiles": "C[C@H]1CN(C(=O)C2CCN(c3c(F)cncc3NC(=O)c3c(N)nn4cc(F)cnc34)CC2)CCN1C", "note": "[I-G-47, (S)-2-amino-N-(4-(4-(3,4-dimethylpiperazine-1-carbonyl)piperidin-1-yl)-5-fluoropyridin-3-yl)-6-fluoropyrazolo[1,5-a]pyrimidine-3-carboxamide]", "values": [{"measurement": "Ki", "result": "10 to 1000", "unit": "nM"}]}, {"smiles": "CN(C)C(=O)[C@H]1CC[C@@H](Oc2ccncc2NC(=O)c2c(N)nn3cc(F)cnc23)CC1", "note": "[I-O-17, 2-amino-N-(4-(((1s,4s)-4-(dimethylcarbamoyl)cyclohexyl)oxy)pyridin-3-yl)-6-fluoropyrazolo[1,5-a]pyrimidine-3-carboxamide]", "values": [{"measurement": "Ki", "result": "10 to 1000", "unit": "nM"}]}, {"smiles": "N#CCc1cnc2c(C(=O)Nc3cnccc3-c3ccccc3)c(N)nn2c1", "note": "[I-C-6, 2-amino-6-(cyanomethyl)-N-(4-phenylpyridin-3-yl)pyrazolo[1,5-a]pyrimidine-3-carboxamide]", "values": [{"measurement": "Ki", "result": "10 to 1000", "unit": "nM"}]}, {"smiles": "Nc1nn2cc(Cl)cnc2c1C(=O)Nc1cnccc1N1CCC(N2CCC3(COC3)C2)CC1", "note": "[I-N-99, N-(4-(4-(2-oxa-6-azaspiro[3.4]octan-6-yl)piperidin-1-yl)pyridin-3-yl)-2-amino-6-chloropyrazolo[1,5-a]pyrimidine-3-carboxamide]", "values": [{"measurement": "Ki", "result": "10 to 1000", "unit": "nM"}]}, {"smiles": "CC(C#N)c1cnc2c(C(=O)Nc3cnccc3N3CCN(C)CC3)c(N)nn2c1", "note": "(stereo not drawn) [I-N-78, 2-amino-6-(1-cyanoethyl)-N-(4-(4-methylpiperazin-1-yl)pyridin-3-yl)pyrazolo[1,5-a]pyrimidine-3-carboxamide]", "values": [{"measurement": "Ki", "result": "10 to 1000", "unit": "nM"}]}, {"smiles": "Nc1nn2cc(Cl)cnc2c1C(=O)Nc1cnccc1N1CCC(N2CC[C@H](F)C2)CC1", "note": "[I-N-103, (S)-2-amino-6-chloro-N-(4-(4-(3-fluoropyrrolidin-1-yl)piperidin-1-yl)pyridin-3-yl)pyrazolo[1,5-a]pyrimidine-3-carboxamide]", "values": [{"measurement": "Ki", "result": "10 to 1000", "unit": "nM"}]}, {"smiles": "CN1CCN(CC2CCN(c3c(F)cncc3NC(=O)c3c(N)nn4cc(C5(C#N)CC5)cnc34)CC2)CC1", "note": "[I-N-192, 2-amino-6-(1-cyanocyclopropyl)-N-(5-fluoro-4-(4-((4-methylpiperazin-1-yl)methyl)piperidin-1-yl)pyridin-3-yl)pyrazolo[1,5-a]pyrimidine-3-carboxamide]", "values": [{"measurement": "Ki", "result": "10 to 1000", "unit": "nM"}]}, {"smiles": "Nc1nn2cc(F)cnc2c1C(=O)Nc1cncc(F)c1N1CCN(C(=O)C2CNC2)CC1", "note": "[I-N-168, 2-amino-N-(4-(4-(azetidine-3-carbonyl)piperazin-1-yl)-5-fluoropyridin-3-yl)-6-fluoropyrazolo[1,5-a]pyrimidine-3-carboxamide]", "values": [{"measurement": "Ki", "result": "10 to 1000", "unit": "nM"}]}, {"smiles": "COCC1CCN(c2ccncc2NC(=O)c2c(N)nn3cc(F)cnc23)CC1", "note": "[I-N-282, 2-amino-6-fluoro-N-(4-(4-(methoxymethyl)piperidin-1-yl)pyridin-3-yl)pyrazolo[1,5-a]pyrimidine-3-carboxamide]", "values": [{"measurement": "Ki", "result": "10 to 1000", "unit": "nM"}]}, {"smiles": "CCOc1ccncc1NC(=O)c1c(N)nn2cc(CC#N)cnc12", "note": "[I-O-28, 2-amino-6-(cyanomethyl)-N-(4-ethoxypyridin-3-yl)pyrazolo[1,5-a]pyrimidine-3-carboxamide]", "values": [{"measurement": "Ki", "result": "< 10", "unit": "nM"}]}, {"smiles": "Nc1nn2cc(Cl)cnc2c1C(=O)Nc1cnccc1OCCCO", "note": "[I-O-53, 2-amino-6-chloro-N-(4-(3-hydroxypropoxy)pyridin-3-yl)pyrazolo[1,5-a]pyrimidine-3-carboxamide]", "values": [{"measurement": "Ki", "result": "10 to 1000", "unit": "nM"}]}, {"smiles": "CS(=O)(=O)C1CCCN(c2ccncc2NC(=O)c2c(N)nn3cc(F)cnc23)C1", "note": "(stereo not drawn) [I-N-221, 2-amino-6-fluoro-N-(4-(3-(methylsulfonyl)piperidin-1-yl)pyridin-3-yl)pyrazolo[1,5-a]pyrimidine-3-carboxamide]", "values": [{"measurement": "Ki", "result": "10 to 1000", "unit": "nM"}]}, {"smiles": "Nc1nn2cc(F)cnc2c1C(=O)Nc1cnccc1-n1ccnc1C(F)(F)F", "note": "[I-N-219, 2-amino-6-fluoro-N-(4-(2-(trifluoromethyl)-1H-imidazol-1-yl)pyridin-3-yl)pyrazolo[1,5-a]pyrimidine-3-carboxamide]", "values": [{"measurement": "Ki", "result": "10 to 1000", "unit": "nM"}]}, {"smiles": "Nc1nn2cc(F)cnc2c1C(=O)Nc1cncc(F)c1N1CCN(C(=O)C2CC3CCCCN3C2)CC1", "note": "(stereo not drawn) [I-N-203, 2-amino-6-fluoro-N-(5-fluoro-4-(4-(octahydroindolizine-2-carbonyl)piperazin-1-yl)pyridin-3-yl)pyrazolo[1,5-a]pyrimidine-3-carboxamide]", "values": [{"measurement": "Ki", "result": "10 to 1000", "unit": "nM"}]}, {"smiles": "COCCN1CCN(c2c(F)cncc2NC(=O)c2c(N)nn3cc(F)cnc23)CC1", "note": "[I-N-127, 2-amino-6-fluoro-N-(5-fluoro-4-(4-(2-methoxyethyl)piperazin-1-yl)pyridin-3-yl)pyrazolo[1,5-a]pyrimidine-3-carboxamide]", "values": [{"measurement": "Ki", "result": "10 to 1000", "unit": "nM"}]}, {"smiles": "CN(C)C1CN(C(=O)C2CCN(c3c(F)cncc3NC(=O)c3c(N)nn4cc(F)cnc34)CC2)C1", "note": "[I-G-22, 2-amino-N-(4-(4-(3-(dimethylamino)azetidine-1-carbonyl)piperidin-1-yl)-5-fluoropyridin-3-yl)-6-fluoropyrazolo[1,5-a]pyrimidine-3-carboxamide]", "values": [{"measurement": "Ki", "result": "10 to 1000", "unit": "nM"}]}]}
